In ChEMBL document CHEMBL4619816, “GSK973 Is an Inhibitor of the Second Bromodomains (BD2s) of the Bromodomain and Extra-Terminal (BET) Family” (ACS Med Chem Lett, 2020):
Activity calls are given as the source filed them. The calls are words filed in the database; no cut-off is given here.

How the values were obtained:
[1] = molecular target: Bromodomain adjacent to zinc finger domain protein 2A (Homo sapiens) (UniProt Q9UIF9); assay: Inhibition of human partial length BAZ2A (M1792 to L1905 residues) expressed in bacterial expression system by BROMOscan assay
[2] = Permeability of compound by artificial membrane assay; type: ADME; conditions: PAMPA; read-out: permeability
[3] = molecular target: Bromodomain-containing protein 2 (Homo sapiens) (UniProt P25440); assay: Inhibition of human partial length BRD2 bromodomain 2 isoform 1 (E348 to D455 residues) expressed in bacterial expression system by BROMOscan assay
Bromodomain-containing protein 2 (Homo sapiens), sequence (P25440 whole entry, looked up, the tested form may be a part, canonical isoform): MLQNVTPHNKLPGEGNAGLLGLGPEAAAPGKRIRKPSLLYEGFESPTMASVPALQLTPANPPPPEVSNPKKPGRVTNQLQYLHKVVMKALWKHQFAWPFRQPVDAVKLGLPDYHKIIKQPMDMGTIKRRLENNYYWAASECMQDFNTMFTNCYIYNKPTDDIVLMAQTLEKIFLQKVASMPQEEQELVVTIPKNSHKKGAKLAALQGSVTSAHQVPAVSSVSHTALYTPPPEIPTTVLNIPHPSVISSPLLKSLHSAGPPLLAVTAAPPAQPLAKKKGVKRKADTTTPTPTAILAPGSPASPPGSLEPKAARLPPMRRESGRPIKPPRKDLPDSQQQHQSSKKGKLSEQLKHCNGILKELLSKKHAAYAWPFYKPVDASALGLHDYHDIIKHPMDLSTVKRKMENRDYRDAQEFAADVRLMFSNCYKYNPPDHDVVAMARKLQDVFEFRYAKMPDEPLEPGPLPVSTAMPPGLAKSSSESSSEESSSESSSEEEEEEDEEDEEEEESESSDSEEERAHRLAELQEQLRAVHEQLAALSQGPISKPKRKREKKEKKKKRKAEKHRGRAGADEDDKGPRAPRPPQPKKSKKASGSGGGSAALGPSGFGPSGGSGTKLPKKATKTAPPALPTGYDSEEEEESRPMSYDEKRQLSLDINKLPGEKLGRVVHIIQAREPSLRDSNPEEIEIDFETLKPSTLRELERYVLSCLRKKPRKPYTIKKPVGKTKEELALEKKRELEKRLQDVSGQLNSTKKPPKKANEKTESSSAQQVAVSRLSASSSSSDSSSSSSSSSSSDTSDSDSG

[4] = Renal clearance in Beagle dog at 1 mg/kg, iv; type: ADME, organism-based, Canis lupus familiaris; conditions: in vivo
[5] = molecular target: Transcription initiation factor TFIID subunit 1 (Homo sapiens) (UniProt P21675); assay: Inhibition of human partial length TAF1 bromodomain 2 (D1521 to D1656 residues) expressed in bacterial expression system by BROMOscan assay
[6] = molecular target: Bromodomain-containing protein 1 (Homo sapiens) (UniProt O95696); assay: Inhibition of human partial length BRD1 (E556 to A688 residues) expressed in bacterial expression system by BROMOscan assay
[7] = molecular target: Bromodomain testis-specific protein (Homo sapiens) (UniProt Q58F21); assay: Inhibition of BRDT bromodomain 1/2 (unknown origin) by BROMOscan assay
[8] = molecular target: ATPase family AAA domain-containing protein 2B (Homo sapiens) (UniProt Q9ULI0); assay: Inhibition of human partial length ATAD2B (Q955 to R1082 residues) expressed in bacterial expression system by BROMOscan assay
[9] = molecular target: Bromodomain-containing protein 8 (Homo sapiens) (UniProt Q9H0E9); assay: Inhibition of BRD8 bromodomain 2 (unknown origin) by BROMOscan assay
Bromodomain-containing protein 8 (Homo sapiens), sequence (Q9H0E9 whole entry): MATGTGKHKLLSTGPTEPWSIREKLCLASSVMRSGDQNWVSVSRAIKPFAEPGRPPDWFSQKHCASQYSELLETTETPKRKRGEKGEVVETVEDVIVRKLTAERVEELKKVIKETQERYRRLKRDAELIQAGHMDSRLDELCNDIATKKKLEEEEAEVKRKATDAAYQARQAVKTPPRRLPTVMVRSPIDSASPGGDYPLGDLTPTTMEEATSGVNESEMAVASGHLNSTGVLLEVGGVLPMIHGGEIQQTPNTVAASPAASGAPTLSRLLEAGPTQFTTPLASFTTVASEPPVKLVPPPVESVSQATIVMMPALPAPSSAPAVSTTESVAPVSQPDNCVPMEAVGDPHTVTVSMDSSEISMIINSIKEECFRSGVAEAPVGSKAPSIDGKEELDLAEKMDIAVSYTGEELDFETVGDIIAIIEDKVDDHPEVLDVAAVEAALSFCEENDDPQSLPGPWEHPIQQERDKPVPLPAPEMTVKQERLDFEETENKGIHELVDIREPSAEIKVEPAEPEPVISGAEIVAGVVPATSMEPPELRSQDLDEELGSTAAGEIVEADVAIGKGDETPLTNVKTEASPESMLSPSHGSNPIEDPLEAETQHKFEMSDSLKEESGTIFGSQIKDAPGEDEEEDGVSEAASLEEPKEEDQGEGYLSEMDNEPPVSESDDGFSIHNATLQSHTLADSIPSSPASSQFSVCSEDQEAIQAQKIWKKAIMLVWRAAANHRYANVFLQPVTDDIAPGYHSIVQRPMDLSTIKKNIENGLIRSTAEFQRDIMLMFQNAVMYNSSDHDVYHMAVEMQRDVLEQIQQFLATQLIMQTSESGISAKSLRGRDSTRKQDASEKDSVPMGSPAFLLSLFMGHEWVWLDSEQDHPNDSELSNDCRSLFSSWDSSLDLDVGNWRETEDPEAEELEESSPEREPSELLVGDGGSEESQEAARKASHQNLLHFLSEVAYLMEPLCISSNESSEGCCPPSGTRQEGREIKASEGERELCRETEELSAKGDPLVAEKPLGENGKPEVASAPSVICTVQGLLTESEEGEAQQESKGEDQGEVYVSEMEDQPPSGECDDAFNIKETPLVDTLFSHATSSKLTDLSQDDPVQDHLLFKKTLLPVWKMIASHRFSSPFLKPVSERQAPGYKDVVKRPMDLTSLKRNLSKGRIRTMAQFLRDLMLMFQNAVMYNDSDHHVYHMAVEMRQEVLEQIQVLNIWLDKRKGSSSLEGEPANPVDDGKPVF

[10] = Clearance in Beagle dog hepatocytes assessed as per gram tissue at 0.5 uM by LC-MS/MS analysis; type: ADME, cell-based, Canis lupus familiaris, Hepatocyte
[11] = molecular target: E3 ubiquitin-protein ligase TRIM33 (Homo sapiens) (UniProt Q9UPN9); assay: Inhibition of human partial length TRIM33 (D882 to A1087 residues) expressed in bacterial expression system by BROMOscan assay
[12] = molecular target: Bromodomain-containing protein 9 (Homo sapiens) (UniProt Q9H8M2); assay: Inhibition of human partial length BRD9 (R130 to V259 residues) expressed in bacterial expression system by BROMOscan assay
Peregrin (Homo sapiens) = Peregrin (Homo sapiens) (UniProt P55201); assay: Inhibition of human partial length BRPF1 (E627 to G740 residues) expressed in bacterial expression system by BROMOscan assay
[13] = molecular target: Transcription intermediary factor 1-alpha (Homo sapiens) (UniProt O15164); assay: Inhibition of human partial length TRIM24 (P790 to P977 residues) expressed in bacterial expression system by BROMOscan assay
[14] = Half life in Wistar Han rat at 1 mg/kg administered as iv infusion for 1 hr and measured up to 24 hrs by LC-MS/MS analysis; type: ADME, organism-based; conditions: in vivo
[15] = Clearance in Beagle dog at 1 mg/kg, iv; type: ADME, organism-based, Canis lupus familiaris; conditions: in vivo
[16] = Volume of distribution at steady state in Wistar Han rat at 1 mg/kg administered as iv infusion for 1 hr and measured up to 24 hrs by LC-MS/MS analysis; type: ADME, organism-based; conditions: in vivo, read-out: Vdss
[17] = molecular target: Histone acetyltransferase p300 (Homo sapiens) (UniProt Q09472); assay: Inhibition of human partial length EP300 (A1040 to G1161 residues) expressed in bacterial expression system by BROMOscan assay
[18] = molecular target: CREB-binding protein (Homo sapiens) (UniProt Q92793); assay: Inhibition of human partial length CREBBP (R1081 to G1197 residues) expressed in bacterial expression system by BROMOscan assay
[19] = molecular target: Bromodomain and PHD finger-containing protein 3 (Homo sapiens) (UniProt Q9ULD4); assay: Inhibition of human partial length BRPF3 (E588 to G701 residues) expressed in bacterial expression system by BROMOscan assay
[20] = Chromatographic hydrophobicity index, log D of the compound in pH 7.4 ammonium acetate buffer/acetonitrile gradient by HPLC analysis; type: physicochemical
[21] = molecular target: Bromodomain-containing protein 8 (Homo sapiens) (UniProt Q9H0E9); assay: Inhibition of BRD8 bromodomain 1 (unknown origin) by BROMOscan assay
[22] = Oral bioavailability in Wistar Han rat at 3 mg/kg measured up to 24 hrs by LC-MS/MS analysis; type: ADME, organism-based; conditions: in vivo
[23] = Renal clearance in Wistar Han rat at 1 mg/kg administered as iv infusion for 1 hr and measured up to 24 hrs by LC-MS/MS analysis; type: ADME, organism-based; conditions: in vivo
[24] = molecular target: Bromodomain testis-specific protein (Homo sapiens) (UniProt Q58F21); assay: Inhibition of human partial length BRDT bromodomain 2 (K250 to E382 residues) expressed in bacterial expression system by BROMOscan assay
[25] = molecular target: Protein polybromo-1 (Homo sapiens) (UniProt Q86U86); assay: Inhibition of human partial length PBRM1 bromodomain 5 (S645 to D766 residues) expressed in bacterial expression system by BROMOscan assay
Protein polybromo-1 (Homo sapiens), sequence (Q86U86 whole entry, the tested form may be a part): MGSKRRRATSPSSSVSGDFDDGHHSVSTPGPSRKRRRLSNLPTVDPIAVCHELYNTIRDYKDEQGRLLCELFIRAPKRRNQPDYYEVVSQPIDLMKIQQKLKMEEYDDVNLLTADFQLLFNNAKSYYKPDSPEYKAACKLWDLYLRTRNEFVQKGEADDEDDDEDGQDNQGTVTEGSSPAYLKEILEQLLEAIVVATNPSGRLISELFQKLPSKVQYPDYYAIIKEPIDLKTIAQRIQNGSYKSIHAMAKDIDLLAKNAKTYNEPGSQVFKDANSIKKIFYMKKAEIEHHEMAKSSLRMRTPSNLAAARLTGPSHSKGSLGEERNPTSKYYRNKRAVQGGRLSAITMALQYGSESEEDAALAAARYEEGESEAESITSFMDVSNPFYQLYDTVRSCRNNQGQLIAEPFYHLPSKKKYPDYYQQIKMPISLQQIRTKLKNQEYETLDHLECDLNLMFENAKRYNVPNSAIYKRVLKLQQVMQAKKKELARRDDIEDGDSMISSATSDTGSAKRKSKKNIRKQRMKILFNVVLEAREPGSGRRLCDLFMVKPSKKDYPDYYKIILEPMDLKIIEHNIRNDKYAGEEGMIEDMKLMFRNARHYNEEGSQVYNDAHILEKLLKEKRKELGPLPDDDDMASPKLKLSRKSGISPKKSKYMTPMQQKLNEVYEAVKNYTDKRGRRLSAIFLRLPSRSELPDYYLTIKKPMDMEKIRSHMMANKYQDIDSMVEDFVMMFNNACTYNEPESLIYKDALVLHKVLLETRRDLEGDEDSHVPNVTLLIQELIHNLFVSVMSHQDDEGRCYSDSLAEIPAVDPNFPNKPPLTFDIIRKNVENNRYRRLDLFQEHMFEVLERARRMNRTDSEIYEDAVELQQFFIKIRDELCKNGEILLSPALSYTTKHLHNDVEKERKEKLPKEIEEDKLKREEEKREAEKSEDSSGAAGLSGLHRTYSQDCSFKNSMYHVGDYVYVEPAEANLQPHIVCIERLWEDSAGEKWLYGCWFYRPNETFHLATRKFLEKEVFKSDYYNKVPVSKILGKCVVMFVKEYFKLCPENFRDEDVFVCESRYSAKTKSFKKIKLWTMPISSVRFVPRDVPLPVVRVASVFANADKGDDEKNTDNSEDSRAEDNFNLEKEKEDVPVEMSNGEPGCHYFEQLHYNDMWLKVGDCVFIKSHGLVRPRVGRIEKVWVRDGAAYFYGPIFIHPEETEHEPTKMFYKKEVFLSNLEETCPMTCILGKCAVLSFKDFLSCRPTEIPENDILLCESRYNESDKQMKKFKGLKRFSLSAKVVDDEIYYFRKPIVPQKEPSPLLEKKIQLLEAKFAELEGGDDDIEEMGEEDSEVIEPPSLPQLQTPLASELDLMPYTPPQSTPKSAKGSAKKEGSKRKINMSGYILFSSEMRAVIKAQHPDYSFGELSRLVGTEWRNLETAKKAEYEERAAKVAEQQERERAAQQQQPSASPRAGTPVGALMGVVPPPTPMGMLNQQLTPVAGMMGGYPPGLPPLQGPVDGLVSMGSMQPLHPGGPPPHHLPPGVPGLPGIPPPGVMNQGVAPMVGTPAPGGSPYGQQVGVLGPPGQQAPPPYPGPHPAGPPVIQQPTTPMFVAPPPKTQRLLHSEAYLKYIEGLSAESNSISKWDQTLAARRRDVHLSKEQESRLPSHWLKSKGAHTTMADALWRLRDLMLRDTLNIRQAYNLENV

[26] = Clearance in Wistar Han rat hepatocytes assessed as per gram tissue at 0.5 uM measured up to 1 hr by LC-MS/MS analysis; type: ADME, cell-based, Hepatocyte
[27] = Oral bioavailability in Beagle dog at 1 mg/kg, […]; type: ADME, organism-based, Canis lupus familiaris; conditions: in vivo
[28] = molecular target: Bromodomain adjacent to zinc finger domain protein 2B (Homo sapiens) (UniProt Q9UIF8); assay: Inhibition of human partial length BAZ2B (S2054 to S2168 residues) expressed in bacterial expression system by BROMOscan assay
[29] = Volume of distribution at steady state in Beagle dog at 1 mg/kg, iv; type: ADME, organism-based, Canis lupus familiaris; conditions: in vivo, read-out: Vdss
[30] = molecular target: Bromodomain-containing protein 2 (Homo sapiens) (UniProt P25440); assay: Inhibition of human partial length BRD2 bromodomain 1 long isoform (K71 to N194 residues) expressed in bacterial expression system by BROMOscan assay
[31] = molecular target: Protein polybromo-1 (Homo sapiens) (UniProt Q86U86); assay: Inhibition of human partial length PBRM1 bromodomain 1 (S178 to E291 residues) expressed in bacterial expression system by BROMOscan assay
[32] = Clearance in Wistar Han rat at 1 mg/kg administered as iv infusion for 1 hr and measured up to 24 hrs by LC-MS/MS analysis; type: ADME, organism-based; conditions: in vivo
[33] = molecular target: Bromodomain-containing protein 7 (Homo sapiens) (UniProt Q9NPI1); assay: Inhibition of human partial length BRD7 (L125 to R254 residues) expressed in mammalian expression system by BROMOscan assay
Bromodomain-containing protein 7 (Homo sapiens), sequence (Q9NPI1 whole entry, the tested form may be a part): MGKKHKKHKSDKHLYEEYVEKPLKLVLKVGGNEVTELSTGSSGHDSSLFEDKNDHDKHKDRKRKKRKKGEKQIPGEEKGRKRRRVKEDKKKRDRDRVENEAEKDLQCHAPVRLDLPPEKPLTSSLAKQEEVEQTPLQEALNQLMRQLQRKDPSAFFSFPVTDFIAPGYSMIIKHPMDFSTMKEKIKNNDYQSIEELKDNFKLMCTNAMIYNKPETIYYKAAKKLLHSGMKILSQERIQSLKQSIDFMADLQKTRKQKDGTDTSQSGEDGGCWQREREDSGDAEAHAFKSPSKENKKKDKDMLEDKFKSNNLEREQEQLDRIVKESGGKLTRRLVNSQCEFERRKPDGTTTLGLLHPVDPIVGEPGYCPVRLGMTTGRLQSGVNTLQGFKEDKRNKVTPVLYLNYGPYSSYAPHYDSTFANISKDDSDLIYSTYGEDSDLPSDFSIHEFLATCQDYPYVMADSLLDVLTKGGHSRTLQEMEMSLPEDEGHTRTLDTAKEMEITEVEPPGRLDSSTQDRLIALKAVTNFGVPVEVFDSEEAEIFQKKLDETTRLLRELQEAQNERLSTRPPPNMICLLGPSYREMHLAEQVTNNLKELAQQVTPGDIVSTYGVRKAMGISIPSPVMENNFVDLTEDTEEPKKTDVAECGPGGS

[34] = molecular target: Transcription initiation factor TFIID subunit 1-like (Homo sapiens) (UniProt Q8IZX4); assay: Inhibition of human partial length TAF1L bromodomain 2 (Q1523 to D1654 residues) expressed in bacterial expression system by BROMOscan assay
[35] = molecular target: Bromodomain-containing protein 3 (Homo sapiens) (UniProt Q15059); assay: Inhibition of BRD3 bromodomain 1/2 (unknown origin) by BROMOscan assay
Bromodomain-containing protein 3 (Homo sapiens), sequence (Q15059 2-726 limits assumed): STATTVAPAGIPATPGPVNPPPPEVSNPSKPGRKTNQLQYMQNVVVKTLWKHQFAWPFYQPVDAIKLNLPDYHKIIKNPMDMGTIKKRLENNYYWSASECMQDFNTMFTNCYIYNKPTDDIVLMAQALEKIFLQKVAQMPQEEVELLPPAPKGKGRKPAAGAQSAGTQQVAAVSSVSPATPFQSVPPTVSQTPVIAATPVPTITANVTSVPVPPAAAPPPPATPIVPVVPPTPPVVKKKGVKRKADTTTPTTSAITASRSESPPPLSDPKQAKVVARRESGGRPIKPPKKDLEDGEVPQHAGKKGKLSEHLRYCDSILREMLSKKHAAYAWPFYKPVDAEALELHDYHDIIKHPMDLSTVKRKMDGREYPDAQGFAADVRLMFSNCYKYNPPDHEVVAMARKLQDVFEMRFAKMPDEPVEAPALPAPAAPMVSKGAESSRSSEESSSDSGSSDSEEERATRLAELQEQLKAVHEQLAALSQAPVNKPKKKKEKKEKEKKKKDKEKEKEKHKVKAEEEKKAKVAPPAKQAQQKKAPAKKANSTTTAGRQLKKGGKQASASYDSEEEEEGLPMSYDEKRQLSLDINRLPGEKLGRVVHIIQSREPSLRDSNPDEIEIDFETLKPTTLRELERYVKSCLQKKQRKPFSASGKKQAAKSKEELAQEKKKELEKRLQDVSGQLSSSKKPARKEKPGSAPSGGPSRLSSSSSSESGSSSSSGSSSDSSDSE

[36] = molecular target: Histone acetyltransferase KAT2B (Homo sapiens) (UniProt Q92831); assay: Inhibition of human partial length PCAF (G715 to D831 residues) expressed in bacterial expression system by BROMOscan assay

CNC(=O)c1cc(C(=O)N[C@@H]2[C@@H]3COC[C@@H]32)cc2c1O[C@H](CF)[C@H]2c1ccccc1
inhibition [1]: inactive
Papp [2]: 16.5 ×10⁻⁶ cm/s
inhibition [3]: inactive
CL renal [4]: 0.3 mL/min/kg
inhibition [5]: inactive
inhibition [6]: inactive
inhibition [7]: inactive
inhibition [8]: inactive
inhibition [9]: inactive
CLH [10]: < 0.65 mL/min/g
inhibition [11]: inactive
inhibition [12]: inactive
inhibition (Peregrin (Homo sapiens)): inactive
inhibition [13]: inactive
half-life [14]: 36 min
clearance [15]: 3 mL/min/kg
Vd [16]: 2.1 L/kg
inhibition [17]: inactive
inhibition [18]: inactive
inhibition [19]: inactive
CHI [20]: 3.56
inhibition [21]: inactive
bioavailability [22]: 48%
CL renal [23]: 4 mL/min/kg
inhibition [24]: inactive
inhibition [25]: inactive
CLH [26]: 1.76 mL/min/g
bioavailability [27]: 87%
inhibition [28]: inactive
Vd [29]: 1.3 L/kg
inhibition [30]: inactive
inhibition [31]: inactive
clearance [32]: 73 mL/min/kg
inhibition [33]: inactive
inhibition [34]: inactive
inhibition [35]: inactive
inhibition [36]: inactive
